One series addresses Prodan-G-actin (Oryctolagus cuniculus, UniProt P68135). In words: Competition-binding assay with GS1 and CapG on Prodan-G-actin. On the set-up: F-actin is purified from rabbit skeletal muscle using a standard protocol; from tissue; host or cells: actin from rabbit skeletal muscle; CapG and GS1 expressed in E. coli M15; species or system rabbit. As for the experimental part:
FIG. 4: (A) CapG: (a), Prodan-G-actin (100 nM), (b), Prodan-G-actin-CapG; (c), same as (b) in the presence of 0.2 μM KabC; (B); GS1: (a), Prodan-G-actin 100 nM; (b), Prodan-G-actin-GS1; (c), same as (b) in the presence of 0.2 μM KabC.
Characterization of actin binding proteins: The actin-binding properties of the ABPs used in this study are evaluated from changes in the fluorescence emission spectrum of Prodan-actin and actin polymerization assays as described by Marriott et al (1988).
Trisoxazolemacrolides specifically compete with GS1 for the (+)-end binding site on actin. Gelsolin, a monomeric 80 kD cytoskeleton protein composed of six domains interacts with actin filaments in a complex, Ca^2+-dependent manner (Janmey et al, 1985; Burtnick et al, 1997). Gelsolin exerts two major effects once bound to an actin filament: first it severs the filament and second it remains tightly bound to the severed (+)-end and serves to block, or cap, further growth. […] Structural analyses of G-actin complexes with GS1 (McLaughlin et al, 1993) and KabC show these unrelated molecules bind to G-actin through common contact sites that include a patch of hydrophobic residues on the surface between sub-domains 1 and 3 and within the cleft that forms between the interface of sub-domains 1 and 3 (McLaughlin et al, 1993;). GS1 binding to Prodan-G-actin shifts the average energy of the fluorescence emission to the red and is accompanied by a decrease in the quantum yield (FIG. 4A) but not to the extent seen in the KabC-G-actin complex (FIG. 2).
Trisoxazolemacrolides specifically compete with CapG for the (+)-end binding site on actin. CapG, a Ca^2+-dependent, (+)-end actin filament capping protein, is found at high levels in macrophage cells where it regulates membrane ruffling and cell protrusions associated with phagocytosis and motility (Botelho et. al., 2000). […] The Ca^2+-dependent binding of CapG to Prodan-G-actin is accompanied by a dramatic blue-shift in the emission spectrum and an increase in quantum yield (FIG. 4B, curve b). The difference in fluorescence emission spectra between free and CapG-bound Prodan-G-actin is used to quantify the parameters for this binding reaction. The G-actin-CapG complex exists as a 1:1 complex and has a dissociation constant of 100 nM (data not shown). […] This conclusion is consistent with a comparison of high-resolution structures of G-actin with GS1 and KabC and a preliminary analysis of a 2.8 Angstrom structure of a CapG mutant (Vorobiev et al, PDB database, 2002). […] However the emission properties of the CapG-Prodan-G-actin complex are unaffected by the binding of LatA, DNAse and thymosin β4 (Tβ4), which is consistent with some structural data showing that these sequestering molecules bind closer to the ATP pocket and DNAse binding loop (Kabsch et al, 1990).

Another series relates to NBT-II cells. In words: Effect of macrolides on NBT-II cells (live cell microscopy). The series is classed as cell-based, rat. As to the method: FIG. 7: Effect of KabC on NBT-II cells. NBT-II cells are imaged after 16 hours of drug treatment. KabC concentrations: (A), Control; (B), 10 nM; (C), 100 nM and (D), 1000 nM.
Cell Culture: Rat bladder NBT-II carcinoma cells and mouse NIH 3T3 fibroblast cells are maintained and treated with external drugs as described in Choidas et al (1998).
Live cell microscopy: A multi-model microscope workstation was used to image phase contrast and fluorescence images of living cells (Choidas et al, 1998). Cells are maintained at 37° in a Hepes based culture medium in a Bioptechs cell perfusion chamber (Choidas et al, 1998).

The target of another series is T1, F-actin (Oryctolagus cuniculus, UniProt P68135).
T1 construct: F-actin is purified from rabbit skeletal muscle using a standard protocol; Prodan (Acrylodan) fluorophore on Cys374 (in the fluorescence spectra); from tissue; host or cells: rabbit skeletal muscle
In words: KabC binding to and severing of Prodan-F-actin (fluorescence spectra, SDS-PAGE of supernatant and pellet). The series is classed as biochemical, rabbit. As to the method:
FIG. 6: Fluorescence emission spectra of 5 μM Prodan-F-actin in the absence (a), and after selected times following the addition of KabC to 5 μM: (b), immediately after the addition of KabC (the emission spectrum is acquired in 30 seconds); (c), 15 min; (d), 39 min; (e), The spectrum of an equivalent concentration of the KabC-Prodan-G-actin complex. Inset: SDS-PAGE Analysis of KabC binding to F-actin. 100 μL of F-actin (10 μM) in […] was treated each with KabC (a: 0; b: 1; c: 4; d: 10 μM) for 30 min and airfuged at 120,000 g for another 30 min. Supernatant (S) and pellet (P) of each sample was run on SDS-PAGE.
F-actin: F-actin is purified from rabbit skeletal muscle using a standard protocol developed in the PI's laboratory (Marriott et al, 1988). The purity and activity of actin is analyzed using SDS-PAGE, polymerization assays and a motility assay (Heidecker et al, 1995).
The fluorescence emission of Prodan-F-actin is also immediately quenched upon adding KabC ([…]). However, a particularly attractive feature of the Prodan-actin probe is that the average energy of the fluorescence emission changes appreciably following the binding of ABPs, macrolides and in the transition of F-actin to G-actin. Careful analysis of the spectrum can yield information on the relative amounts of up to 4 different states in equilibrium (Marriott et al, 1988). This feature is useful to help understand how KabC binds to Prodan-F-actin. The addition of an equimolar amount of KabC to Prodan-F-actin leads to an immediate decrease in the fluorescence quantum yield, which is followed by a far slower red-shift in the average energy of the emission spectrum over time. […] In this experiment, the monomeric actin (supernatant, S) and F-actin (pellet, P) fractions of KabC treated F-actin are separated after a 60-minute incubation by high-speed centrifugation (120,000 g) and quantified by Coumassie staining of the acrylamide gel. […]

The source of these data is patent publication US7301020B2, “Macrolide analogs and methods for identifying same” (priority 2003, dated 2007).

“Also recorded” adds a separate entry of the source.

As to Kabiramide C [KabC], at Prodan-G-actin, the “displacement of CapG from Prodan-G-actin” value is reported as “displace CapG from Prodan-G-actin in a Ca^2+-independent manner”. For the same substance, the “stability of final G-actin-KabC complex” value at Prodan-G-actin (dilution and competition-binding studies) is “extremely stable and does not dissociate at a concentration below the equilibrium constant”. In addition, at Prodan-G-actin (presence of EGTA), the “displacement of GS1 from Prodan-G-actin” value is “displaces GS1”. Besides, the “concentration at which cytotoxic effects are seen” value in the series with NBT-II cells was more than 10 nM. In addition, the “cytotoxic activity on NBT II epithelia cells” value with NBT-II cells was “concentration dependent cytotoxic activity”. Moreover, the cell phenotype result is “fail to complete cytokinesis and are immotile” in the series with NBT-II cells (10 nM, >12 hours); “the cells lose control of contractile functions and have enlarged vesicles” in the series on NBT-II cells (100 nM); “complete breakdown of their actin cytoskeleton and die within a few hours” with NBT-II cells (1 μM or higher); “an increase in the number of blebs, a breakdown in the adherens junction and a cytokinesis defect; also recorded: cytoskeleton-linked phenotypes” with NBT-II cells (10˜100 nM). For the same substance, in the series with NBT-II cells (1000 nM), the “time to cell death” value was 8˜12 hours. Moreover, at F-actin, the F-actin severing entry was “single and slow severing event”. The “actin fraction by SDS-PAGE after centrifugation” value at F-actin (F-Actin:KabC 10:1 and 5:2) is given as “a significant fraction of the total actin exists as F-actin”. At F-actin (sub-stoichiometric KabC (1/10th)), the “depolymerization of F-actin” value is reported as “not depolymerized”.
